Legend:
Format in all cases: physicochemical
[1] = Absorption spectra of absorption membrane before and after high temperature/high humidity evaluation (Test Example 2); settings: 85% relative humidity, 120 hours; for ΔA = 100×(Af−Ai)/Ai / Δλ = 100×(λf−λi)λi: 85° C.; for Af, transmittance at the absorption maximum wavelength / λf, absorption maximum wavelength: absorption membrane after 85° C.; for Ai, transmittance at the absorption maximum wavelength / λi, absorption maximum wavelength: absorption membrane before 85° C.
Excerpt: FIGS. 4 to 6 are the absorption spectra of the absorption membranes prepared in Test Example 1 using the absorbents of Embodiments 1 to 3, respectively. FIGS. 7 to 9 are the absorption spectrum of the absorption membrane prepared in Test Example using the absorbents of Comparative Examples 1 to 3, respectively. In the FIGS., the spectra indicated before reliability is the result immediately after preparing the absorption membrane, and the spectra indicated after reliability is the result after high temperature/high humidity evaluation was performed on the absorption membrane. The high temperature/high humidity evaluation is an evaluation where the absorption membrane is maintained at a temperature of 85° C. under a relative humidity of 85% for 120 hours. In Tables 4 and 5, Af is the transmittance at the absorption maximum wavelength of the absorption membrane maintained at 85° C. under 85% relative humidity for 120 hours and λf is the absorption maximum wavelength for after case. Ai is the transmittance at the absorption maximum wavelength of the absorption membrane before being maintained at 85° C. under 85% relative humidity for 120 hours and λi is the absorption maximum wavelength for before case. In Tables 4 and 5, ΔA is a value calculated as 100×(Af−Ai)/Ai, and Δλ is a value calculated as 100×(λf−λi)λi.

[2] = Solubility of the absorbent in methylene chloride; settings: room temperature (about 25° C.)
Description: The solubility of the absorbent was evaluated. Solubility was determined based on the following criteria by evaluating the solubility of the absorbent in the solvent (MC, Methylene Chloride) at room temperature (about 25° C.).

[3] = Pyrolysis temperature (Td 5%) analysis by TGA; settings: 25-800° C., 10° C./min, N2
Description: The Td 5% is a value obtained through TGA (Thermogravimetric Analysis) analysis. It is the value (Td 5%) at a weight loss of 5% confirmed under the conditions of a temperature range of 25° C. to 800° C., a temperature increase rate of 10° C./min, and a nitrogen (N2) atmosphere of 60 cm^3/min.
Thermogravimetric Analysis (TGA) of the chemical compound was performed by using Scinco's TGA N-1000 equipment. The analysis was performed by using approximately 3 mg of sample (chemical compound) and the analysis was conducted under conditions of a temperature range of 25° C. to 800° C., a temperature increase rate of 10° C./min, and nitrogen (N2) atmosphere of 60 cm^3/min. The value at […] (Td 5%) was used as the Td decomposition temperature.

[4] = Transmittance of absorption membrane before and after reliability evaluation (Test Example 1); settings: for 425~465 nm Tave, Δ / 425~465 nm Tmin, Δ / 466~480 nm Tave, Δ / 466~480 nm Tmin, Δ / 480~560 nm Tave, Δ / λmax Tmax (transmittance at the absorption maximum), Δ: change before/after 85° C.; for 425~465 nm Tave, Δ / 425~465 nm Tmin, Δ / 466~480 nm Tave, Δ / 466~480 nm Tmin, Δ / 480~560 nm Tave, Δ / λmax Tmax (transmittance at the absorption maximum), Δ / 425~465 nm Tave, A / 425~465 nm Tmin, A / 466~480 nm Tave, A / 466~480 nm Tmin, A / 480~560 nm Tave, A: 85% RH, 120 hours; for 425~465 nm Tave, B / 425~465 nm Tmin, B / 466~480 nm Tave, B / 466~480 nm Tmin, B / 480~560 nm Tave, B: silicone resin membrane about 6 μm, before reliability evaluation; for 425~465 nm Tave, A / 425~465 nm Tmin, A / 466~480 nm Tave, A / 466~480 nm Tmin, A / 480~560 nm Tave, A: silicone resin membrane, after 85° C.
Description: The transmittance spectrum was measured using a spectrophotometer (Manufacturer: Perkinelmer, Product Name: Lambda 750 Spectrophotometer) on a specimen obtained by cutting the measurement object (e.g., an absorption membrane) so that the width and height were 10 mm and 10 mm, respectively. The transmittance spectrum was measured for each wavelength according to the equipment manual. The specimen was placed on a straight line between a measuring beam of the spectrophotometer and a detector and the transmittance spectrum was confirmed by setting the incident angle of the measuring beam to 0°. The incident angle of 0° is a direction substantially parallel to the surface normal direction of the specimen. The average transmittance within a certain wavelength range in the transmittance spectrum is the result of measuring the transmittance at each wavelength while increasing the wavelength by 1 nm starting from the shortest wavelength in the wavelength range, and then calculating the arithmetic average of the measured transmittances. The maximum transmittance is the maximum transmittance among the transmittances measured while increasing the wavelength by 1 nm and the minimum transmittance is the minimum transmittance among the transmittances measured while increasing the wavelength by 1 nm. For example, the average transmittance within the wavelength range of 350 nm to 360 nm is the arithmetic mean of the transmittance measured at the wavelength of 350 nm, 351 nm, 352 nm, 353 nm, 354 nm, 355 nm, 356 nm, 357 nm, 358 nm, 359 nm, and 360 nm. The maximum transmittance within the wavelength range of 350 nm to 360 nm is the highest transmittance measured at wavelengths of 350 nm, 351 nm, 352 nm, 353 nm, 354 nm, 355 nm, 356 nm, 357 nm, 358 nm, 359 nm and 360 nm and the minimum transmittance within the wavelength range of 350 nm to 360 nm is the lowest transmittance among the transmittances measured at wavelengths of 350 nm, 351 nm, 352 nm, 353 nm, 354 nm, 355 nm, 356 nm, 357 nm, 358 nm, 359 nm, and 360 nm.
A coating solution was prepared by mixing silicone resin (Dow Chemical, RSN-0217), absorbent, and solvent (cyclohexanone) as resin components. The mixing ratio of the resin component, absorbent, and solvent was set to be 69.3:0.99:29.7 in weight ratio (resin:absorbent:solvent).
The coating solution was coated on a transparent substrate (a glass substrate manufactured by SCHOTT) and maintained at 140° C. for about 2 hours to form an absorption membrane with a thickness of about 6 μm.
Tables 2 and 3 below summarize the transmittance of the absorption membrane before and after reliability evaluation in the ultraviolet and near-infrared regions. The reliability evaluation is an evaluation of maintaining the absorption membrane at 85° C. and under 85% relative humidity condition for 120 hours. In Table 2, B refers to the result before performing the reliability evaluation and A refers to the result after performing the reliability evaluation. Additionally, in Table 2, λmax means the transmittance at the absorption maximum.
In Tables 2 and 3, Δ is the rate of change (%) of each characteristic before and after the reliability evaluation, calculated as 100×[…]/B, where […], B is the value indicated by B in Table 2. In Table 2, Tmax refers to the highest transmittance within the corresponding wavelength region, Tave refers to the average transmittance within the corresponding wavelength region, and Tmin refers to the minimum transmittance within the corresponding wavelength region.

[5] = Absorption maximum measurement; settings: chloroform, about 10^-5 M
Description: The maximum absorption was evaluated by a conventional method. Specifically, the sample was dissolved in chloroform solvent at a concentration of about 10^−5 M and then evaluated using measuring equipment (Agilent, Varian Cary 4000).

| SMILES | ΔA = 100×(Af−Ai)/Ai [1] | Δλ = 100×(λf−λi)λi [1] | Af, transmittance at the absorption maximum wavelength [1] | λf, absorption maximum wavelength [1] | Ai, transmittance at the absorption maximum wavelength [1] | λi, absorption maximum wavelength [1] | Solubility [2] | Td 5% [3] | 425~465 nm Tave, Δ [4] | 425~465 nm Tmin, Δ [4] | 466~480 nm Tave, Δ [4] | 466~480 nm Tmin, Δ [4] | 480~560 nm Tave, Δ [4] | λmax Tmax (transmittance at the absorption maximum), Δ [4] | 425~465 nm Tave, B [4] | 425~465 nm Tmin, B [4] | 466~480 nm Tave, B [4] | 466~480 nm Tmin, B [4] | 480~560 nm Tave, B [4] | 425~465 nm Tave, A [4] | also measured |
| --- | --- | --- | --- | --- | --- | --- | --- | --- | --- | --- | --- | --- | --- | --- | --- | --- | --- | --- | --- | --- | --- |
| CCCCN1/C(=C\C=C2/CCC(/C=C/C3=[N+](CCCC)c4ccccc4C3(C)C)=C2Cl)C(C)(C)c2ccccc21 [Comparative Example 3] | 52.6% | −12% | 33.0% | 818 nm | 21.6% | 819 nm | A (When solubility is 1 mass % or more) | 186 °C | −0.2% | 0% | −0.9% | −0.6% | −1.3% | 11.4% | 87.3% | 86.5% | 88.9% | 88% | 90.4% | 87% | 425~465 nm Tmin, A [4]: 86.6%; 466~480 nm Tave, A [4]: 88%; 466~480 nm Tmin, A [4]: 87.5%; 480~560 nm Tave, A [4]: 89.2%; Maximum Absorption Wavelength [5]: 815 nm |
| CCCCN1\C(=C/C=C/C=C/C=C/C2=[N+](CCCC)c3ccccc3C2(C)C)C(C)(C)c2ccccc21 [Comparative Example 1] | 69.0% | −13% | 36.0% | 747 nm | 21.3% | 748 nm | A (When solubility is 1 mass % or more) | 215 °C | 0.2% | 1.0% | −0.6% | −0.7% | −0.3% | 14.7% | 88.7% | 86.5% | 90.1% | 89.8% | 90.1% | 88.9% | 425~465 nm Tmin, A [4]: 87.5%; 466~480 nm Tave, A [4]: 89.5%; 466~480 nm Tmin, A [4]: 89.1%; 480~560 nm Tave, A [4]: 89.8%; Maximum Absorption Wavelength [5]: 761 nm |

From patent US20250197641A1, “OPTICAL ABSORBENT” (priority 2023, published 2025)
